Data as given in patent US7084140B2, “Arylglycinamide derivatives, method of producing said derivatives and pharmaceutical compositions containing these compounds” (Boehringer Ingelheim Pharma GmbH & Co. KG, priority 1996, dated 2006).
Structures can show the parent of a compound that is named as a salt.

target: T1, NK1 (Cavia porcellus, UniProt P30547); assay: Inhibition of lowering of blood pressure caused by NK1 in anaesthetised guinea pigs; format: in vivo; details: 1 mg/kg administered into the duodenum, NK1-agonist [βAla4, Sar9, Met(O2)11]SP(4-11) 0.2 μmol/kg i.v.
T1 construct: from tissue; host or cells: whole animal (anaesthetised guinea pig)
T1 sequence (P30547 whole entry): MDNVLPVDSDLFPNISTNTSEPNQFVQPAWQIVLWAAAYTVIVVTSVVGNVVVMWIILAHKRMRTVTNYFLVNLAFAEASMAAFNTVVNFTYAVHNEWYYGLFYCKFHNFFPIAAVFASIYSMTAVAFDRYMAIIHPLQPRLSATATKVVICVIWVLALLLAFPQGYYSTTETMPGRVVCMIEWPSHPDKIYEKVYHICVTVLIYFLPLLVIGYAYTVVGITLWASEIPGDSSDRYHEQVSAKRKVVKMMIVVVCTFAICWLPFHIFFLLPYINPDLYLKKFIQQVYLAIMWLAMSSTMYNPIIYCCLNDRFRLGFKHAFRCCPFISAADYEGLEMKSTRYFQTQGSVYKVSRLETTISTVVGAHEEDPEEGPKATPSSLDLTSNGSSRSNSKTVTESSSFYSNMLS
Experimental: Inhibition of lowering of blood pressure caused by NK1 in anaesthetised guinea pigs.
Guinea pigs weighing 300–500 grams were anaesthetised with pentobarbital (50 mg/kg i.p.), intubated and artificially ventilated. They were ventilated with 10 ml/kg of air at a frequency of 60 breaths per minute. The carotid artery was canulated and the arterial blood pressure was recorded. A polyethylene tube was inserted into the jugular vein for the intravenous supply of substances.
A temporary reduction in blood pressure was brought about at intervals of 10 minutes by intravenous administration of the NK1-agonist [βAla^4, Sar^9, Met (O2)^11]Sp(4-11)
[drawing 30] in a dose of 0.2 μmol/kg. After the blood pressure thus produced had been measured, the test compound was introduced into the duodenum and the NK1-agonist was again injected every 10 minutes.
The results were expressed as a % inhibition of the reduction in blood pressure caused by the NK1-agonist specified.

Row | Compound | % inhibition of the reduction in blood pressure caused by the NK1-agonist
1 | CC(C)N1CCN(C(C(=O)N(C)CCc2cc(C(F)(F)F)cc(C(F)(F)F)c2)c2ccccc2)CC1 (racemic) [Example 1, (R,S)-1-i-propyl-4-[2-phenylacetic acid-N-methyl-N-(3,5-bistrifluoromethylphenylethyl)]-amide dihydrochloride] | 80%

target: T2, NK1-receptor (substance P-receptor) (Homo sapiens, UniProt P25103); assay: Receptor affinity for the NK1-receptor, displacement of 125I-labelled substance P on IM-9 cells; format: binding; details: human lymphoblastoma cells (IM-9) with cloned NK1-receptors
T2 construct: expressed in transfected cells; host or cells: IM-9 human lymphoblastoma cells
T2 sequence (P25103 whole entry): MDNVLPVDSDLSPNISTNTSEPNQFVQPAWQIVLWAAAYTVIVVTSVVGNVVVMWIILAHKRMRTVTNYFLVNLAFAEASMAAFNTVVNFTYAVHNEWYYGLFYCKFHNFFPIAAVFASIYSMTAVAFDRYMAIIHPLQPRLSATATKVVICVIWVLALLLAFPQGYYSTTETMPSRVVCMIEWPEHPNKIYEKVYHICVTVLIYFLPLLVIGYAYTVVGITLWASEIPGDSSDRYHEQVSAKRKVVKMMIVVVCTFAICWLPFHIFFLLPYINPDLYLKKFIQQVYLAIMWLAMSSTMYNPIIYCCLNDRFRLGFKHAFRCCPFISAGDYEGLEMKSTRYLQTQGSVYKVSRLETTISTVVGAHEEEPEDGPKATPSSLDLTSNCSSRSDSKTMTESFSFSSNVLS
Experimental: The receptor affinity for the NK1-receptor (substance P-receptor) is determined on human lymphoblastoma cells (IM-9) with cloned NK1-receptors, by measuring the displacement of ^125I-labelled substance P. The K1-values thus obtained show the efficacy of the compounds: […]

Row | Compound | Ki
2 | CC(C)N1CCN(C(C(=O)N(C)CCc2cc(C(F)(F)F)cc(C(F)(F)F)c2)c2ccccc2)CC1 (racemic) [Example 1, (R,S)-1-i-propyl-4-[2-phenylacetic acid-N-methyl-N-(3,5-bistrifluoromethylphenylethyl)]-amide dihydrochloride] | 1.2 nM
3 | CN(CCc1cc(C(F)(F)F)cc(C(F)(F)F)c1)C(=O)C(c1ccccc1)N1CCNCC1 (stereo not drawn) [Example 2] | 1 nM
4 | CN(CCc1cc(C(F)(F)F)cc(C(F)(F)F)c1)C(=O)C(c1ccccc1)N1CCN(c2ncccn2)CC1 (stereo not drawn) [Example 3] | 19 nM
5 | CN1CCCN(C(C(=O)N(C)CCc2cc(C(F)(F)F)cc(C(F)(F)F)c2)c2ccccc2)CC1 (stereo not drawn) [Example 4] | 1.4 nM
6 | CN(CCc1cc(C(F)(F)F)cc(C(F)(F)F)c1)C(=O)C(c1ccccc1)N1CCC(N(C)C)CC1 (stereo not drawn) [Example 5] | 1.5 nM
7 | CN1CCN(C2CCN(C(C(=O)N(C)CCc3cc(C(F)(F)F)cc(C(F)(F)F)c3)c3ccccc3)CC2)CC1 (stereo not drawn) [Example 8] | 1.8 nM
8 | CN1CCC(N2CCN(C(C(=O)N(C)CCc3cc(C(F)(F)F)cc(C(F)(F)F)c3)c3ccccc3)CC2)CC1 (stereo not drawn) [Example 9] | 2.5 nM
9 | CN(CCc1cc(C(F)(F)F)cc(C(F)(F)F)c1)C(=O)C(c1ccccc1)N1CCN(CC(=O)N2CCCC2)CC1 (stereo not drawn) [Example 11] | 3.8 nM
10 | CN(CCc1cc(C(F)(F)F)cc(C(F)(F)F)c1)C(=O)C(c1ccccc1)N1CCC(N2CCN(CC(N)=O)CC2)CC1 (stereo not drawn) [Example 12] | 5 nM
11 | CN(CCc1cc(C(F)(F)F)cc(C(F)(F)F)c1)C(=O)C(c1ccccc1)N1CCC(N2CCC(N3CCCCC3)CC2)CC1 (stereo not drawn) [Example 13] | 2.4 nM
12 | CCN(CC)C1CCN(C(C(=O)N(C)CCc2cc(C(F)(F)F)cc(C(F)(F)F)c2)c2ccccc2)CC1 (stereo not drawn) [Example 15] | 0.98 nM
13 | CN(CCc1cc(C(F)(F)F)cc(C(F)(F)F)c1)C(=O)C(c1ccccc1)N1CCC(N(C)CCO)CC1 (stereo not drawn) [Example 16] | 0.9 nM
14 | CN(CCc1cc(C(F)(F)F)cc(C(F)(F)F)c1)C(=O)C(c1ccccc1)N1CCC(N)CC1 (stereo not drawn) [Example 17] | 7.75 nM
15 | CNC1CCN(C(C(=O)N(C)CCc2cc(C(F)(F)F)cc(C(F)(F)F)c2)c2ccccc2)CC1 (stereo not drawn) [Example 18] | 0.96 nM
16 | CN(CCc1cc(C(F)(F)F)cc(C(F)(F)F)c1)C(=O)C(c1ccccc1)N1CCC(NC2CCCC2)CC1 (stereo not drawn) [Example 19] | 1.17 nM
17 | CC(C)NC1CCN(C(C(=O)N(C)CCc2cc(C(F)(F)F)cc(C(F)(F)F)c2)c2ccccc2)CC1 (stereo not drawn) [Example 20] | 2 nM
18 | CN(CCc1cc(C(F)(F)F)cc(C(F)(F)F)c1)C(=O)C(c1ccccc1)N1CCC(O)CC1 (stereo not drawn) [Example 22] | 2.2 nM
19 | CN(CCc1cc(C(F)(F)F)cc(C(F)(F)F)c1)C(=O)C(c1ccccc1)N1CCC(NCC(=O)N2CCOCC2)CC1 (stereo not drawn) [Example 23] | 2.5 nM

Row | Compound | Ki
20 | C=CCN1CCN(C(C(=O)N(C)CCc2cc(C(F)(F)F)cc(C(F)(F)F)c2)c2ccccc2)CC1 (stereo not drawn) [Example 24] | 2.2 nM
21 | C#CCN1CCN(C(C(=O)N(C)CCc2cc(C(F)(F)F)cc(C(F)(F)F)c2)c2ccccc2)CC1 (stereo not drawn) [Example 25] | 6 nM
22 | CN(CCc1cc(C(F)(F)F)cc(C(F)(F)F)c1)C(=O)C(c1ccccc1)N1CCN(CCO)CC1 (stereo not drawn) [Example 26] | 1.6 nM
23 | CN(C)CCN1CCN(C(C(=O)N(C)CCc2cc(C(F)(F)F)cc(C(F)(F)F)c2)c2ccccc2)CC1 (stereo not drawn) [Example 28] | 1.3 nM
24 | COCCN1CCN(C(C(=O)N(C)CCc2cc(C(F)(F)F)cc(C(F)(F)F)c2)c2ccccc2)CC1 (stereo not drawn) [Example 30] | 1.8 nM
25 | CC(C)N1CCN(C(C(=O)N(C)CCc2cc(C(F)(F)F)cc(C(F)(F)F)c2)c2ccccc2)CC1=O (stereo not drawn) [Example 32] | 1.3 nM
26 | CC(C)N1CCN(C(C(=O)NC(C)(C)Cc2cc(C(F)(F)F)cc(C(F)(F)F)c2)c2ccccc2)CC1 (stereo not drawn) [Example 33] | 7.4 nM
27 | CC(C)(Cc1cc(C(F)(F)F)cc(C(F)(F)F)c1)NC(=O)C(c1ccccc1)N1CCNCC1 (stereo not drawn) [Example 34] | 2.9 nM
28 | COc1ccc(C(C(=O)N(C)CCc2cc(C(F)(F)F)cc(C(F)(F)F)c2)N2CCNCC2)cc1OC (stereo not drawn) [Example 47] | 1.7 nM
29 | CN(CCc1cc(C(F)(F)F)cc(C(F)(F)F)c1)C(=O)C(c1ccccc1)N1CCC(N(CCO)CCO)CC1 (stereo not drawn) [Example 55] | 1.25 nM
30 | CCCN1CCN(C(C(=O)N(C)CCc2cc(C(F)(F)F)cc(C(F)(F)F)c2)c2ccccc2)CC1 (stereo not drawn) [Example 63] | 1.4 nM
31 | CN1CCN(C(C(=O)N(C)CCc2cc(C(F)(F)F)cc(C(F)(F)F)c2)c2ccccc2)CC1 (stereo not drawn) [Example 64] | 1.1 nM
32 | COc1ccc(C(C(=O)N(C)CCc2cc(C(F)(F)F)cc(C(F)(F)F)c2)N2CCN(C(C)C)CC2)cc1OC (stereo not drawn) [Example 65] | 5.7 nM
33 | CC(C)N1CCN(C(C(=O)N(C)CCc2cc(C(F)(F)F)cc(C(F)(F)F)c2)c2cccc3c2OCO3)CC1 (stereo not drawn) [Example 73] | 2 nM
34 | CC(C)N1CCN(C(C(=O)N(C)CCc2cc(C(F)(F)F)cc(C(F)(F)F)c2)c2ccccc2)CC1 (stereo not drawn) [Example 74] | 1.5 nM
35 | CN(CCc1cc(C(F)(F)F)cc(C(F)(F)F)c1)C(=O)[C@H](c1ccccc1)N1CCNCC1 [Example 75] | 0.44 nM
36 | CN(CCc1cc(C(F)(F)F)cc(C(F)(F)F)c1)C(=O)C(c1ccccc1)N1CCC(N(C)CCCCO)CC1 (stereo not drawn) [Example 76] | 2 nM
